Key:
Type in all cases: cell-based
[1] = system: INS-1 cells; assay: glucose-dependent insulin secretion in INS-1 cells, ID 1101 with Glibenclamide; conditions: 4.5 mM glucose, 1 hour
Protocol: The optical isomer 2S,3R,4S of 4-hydroxyisoleucine (ID 1101) was tested in a blinded manner, alone and in combination with Glibenclamide, to determine the insulinotropic effect on INS-1 cells. Briefly, the cells were plated at a density of 2×10^5 in 12 well plates and incubated for 2 days in RPMI with 10% fetal calf serum and 11 mM glucose. The medium was removed on the third day post-plating and replaced with RPMI containing 3 mM glucose with 10% fetal calf serum. The cells were incubated for an additional 24 hours. On the fourth day post-plating, the medium was removed and replaced with Krebs-Ringers bicarbonate buffer containing 2 mM glucose. The cells were incubated for 30 minutes. The buffer was removed and replaced with Krebs-Ringers bicarbonate buffer with 4.5 mM glucose, containing ID 1101 at 0.1 mM, Glibenclamide alone at 10-10 mM or 10^−11 mM, or a combination of the 2 compounds. The cells were incubated for 1 hour. Basal insulin secretion was determined by incubating the cells in the presence of buffer with 2 mM glucose. The presence of glucose at 4.5 mM stimulated insulin secretion and served as the positive control.

[2] = system: differentiated 3T3-L1 adipocyte cells; assay: uptake of 3H-deoxy-glucose by differentiated 3T3-L1 adipocyte cells; conditions: last 30 minutes of 5 hour starvation, control cells 2 pmol/mg/minute
Protocol: Briefly, 3T3-L1 adipocyte cells (ATCC; Cl-173) were cultured in 12 well tissue culture plates for 3 days in order to reach confluence ([…] al., “Analysis of insulin-stimulated glucose uptake in differentiated 3T3-L1 adipocytes,” Diabetes Mellitus: Methods and Protocols, ([…]., 2003, pages 97-103). The culture medium was removed and replaced with differentiation-medium (Green et al., Cell 3:127-133, 1974; Madsen et al., Biochem. J. 375:539-549, 2003), and then the cells were incubated for an additional 9 days. The state of differentiation was confirmed by visual examination. Cell starvation was conducted for 5 hours by replacing the differentiation medium with medium lacking fetal calf serurn. During the starvation period, the cells were exposed ID 1101 (0.5 or 1.0 mM), for 0.5, 1, 2, 4, or 5 hours. The cells were exposed to insulin (0.0167 U/ml; Sigma; Cat. No. 15534) for the last 0.5 hour of the starvation period, either alone or in combination ID 1101. The cells were washed, and then fresh medium containing 16 μM ^3H-Deoxy-D-glucose (0.5 μCi/ml) and 10 μM 2-Deoxy-D-glucose was added and the cells were incubated for 10 minutes. Glucose uptake was stopped by washing the cells with ice cold PBS. The cells were lysed and specific activity in the lysate was determined relative to background uptake of ^3H-deoxy-glucose. […]

[3] = system: INS-1 cells; assay: glucose-dependent insulin secretion in INS-1 cells, ID 1101 with Exendin-4; conditions: 4.5 mM glucose, 1 hour
Protocol: The optical isomer 2S,3R,4S of 4-hydroxyisoleucine (ID 1101) was tested alone and in combination with Exendin-4, to determine the insulinotropic effect on INS-1 cells. Briefly, the cells were plated at a density of 2×10^5 in 12 well plates and incubated for 2 days in RPMI with 10% fetal calf serum and 11 mM glucose. The medium was removed on the third day post-plating and replaced with RPMI containing 3 mM glucose with 10% fetal calf serum. The cells were incubated for an additional 24 hours. On the fourth day post-plating, the medium was removed and replaced with Krebs-Ringers bicarbonate buffer containing 2 mM glucose. The cells were incubated for 30 ninutes. The buffer was removed and replaced with Krebs-Ringers bicarbonate buffer with 4.5 mM glucose, containing ID 1101 at 0.01 or 0.05 mM, Exendin-4 alone at 10^−9 mM or 10^−10 mM, or a combination of the 2 compounds. The cells were incubated for 1 hour. Basal insulin secretion was determined by incubating the cells in the presence of buffer with 2 mM glucose. The effect of glucose at 4.5 mM served as the control.

COc1ccc(Cl)cc1C(=O)NCCc1ccc(S(=O)(=O)NC(=O)NC2CCCCC2)cc1 [Glibenclamide] was tested, and the insulin secretion ([1]; Glibenclamide 10^−10 mM) was “showed a stimulatory effect” and the insulin secretion ([1]; Glibenclamide 10^−11 mM) was “not”.

With C[C@@H]([C@H](C)O)[C@H](N)C(=O)O [ID 1101, 4-hydroxyisoleucine] the “stimulation of glucose uptake above the background level” value ([2]; ID 1101 0.5 or 1.0 mM as sole treatment) was “approximately 5 pmol/mg/minute”, the insulin secretion ([1]; ID 1101 0.1 mM) was “stimulated insulin secretion above background levels” and the insulin secretion ([3]; ID 1101 0.01 or 0.05 mM) was “stimulated insulin secretion above background levels”.

For Exendin-4 [reference compound], the insulin secretion ([3]; Exendin-4 10^−9 and 10^−10 mM) was “did not show a stimulatory effect”.

In the case of insulin, the “stimulation of glucose uptake above the background level” value ([2]; insulin 0.0167 U/ml as sole treatment) is reported as “approximately 5 pmol/mg/minute”.
